Drawing on ChEMBL document CHEMBL4038315, “Identification of Peptidic Antagonists of Vascular Endothelial Growth Factor Receptor 1 by Scanning the Binding Epitopes of Its Ligands” (J Med Chem, 2017), this text covers inhibition for three compounds.

This experiment relates to HUVEC. The conditions noted are these: Homo sapiens, 50 uM.

Molecules are shown by their SMILES. Calls of active or inactive are those of the source. No cut-off for these calls is given here. Positions of bridges follow the written chain, without caps; N, C: chain ends. Residues, ends and D or L forms follow the SMILES beside them.

Description: Antiangiogenic activity in HUVEC assessed as inhibition of VEGF-A-induced tube formation at 50 uM preincubated for 15 mins prior to VEGF-A addition measured after 4 hrs by matrigel assay

As for `CSCC[C@@H]1NC(=O)[C@H](CC(C)C)NC(=O)[C@H](CCC(=O)O)NC(=O)[C@H](C(C)C)NC(=O)[C@H]([C@@H](C)O)NC(=O)[C@@H](NC(C)=O)CSSC[C@@H](C(N)=O)NC(=O)[C@@H]2CCCN2C(=O)[C@H](C(C)C)NC(=O)[C@H](CC(C)C)NC(=O)[C@H](CCC(N)=O)NC(=O)[C@H](CCCCN)NC(=O)[C@H](C)NC(=O)[C@H](C(C)C)NC(=O)[C@H]([C@@H](C)O)NC(=O)CNC1=O` (Ac-CTVELMGTVAKQLVPC-NH2; disulfide 1-16), the inhibition result is “Active”. The value for `CC[C@H](C)[C@@H]1NC(=O)[C@H](Cc2ccc(O)cc2)NC(=O)[C@H](CCC(=O)O)NC(=O)[C@H]([C@@H](C)CC)NC(=O)[C@H](CCC(=O)O)NC(=O)[C@H](CC(=O)O)NC(=O)[C@@H]2CCCN2C(=O)[C@H](Cc2ccc(O)cc2)NC(=O)[C@H](CCC(=O)O)NC(=O)[C@H](CCC(N)=O)NC(=O)[C@H](Cc2ccccc2)NC(=O)[C@@H](N)CSSC[C@@H](C(=O)N[C@@H](CCCCN)C(N)=O)NC1=O` (H-CFQEYPDEIEYICK-NH2; disulfide 1-13) was “Active”; that for `CC[C@H](C)[C@@H]1NC(=O)[C@H](Cc2ccc(O)cc2)NC(=O)[C@H](CCC(=O)O)NC(=O)[C@H]([C@@H](C)CC)NC(=O)[C@H](CCC(=O)O)NC(=O)[C@H](CC(=O)O)NC(=O)[C@@H]2CCCN2C(=O)[C@H](Cc2ccc(O)cc2)NC(=O)[C@H](CCC(=O)O)NC(=O)[C@H](CCC(N)=O)NC(=O)[C@@H](N)CSSC[C@@H](C(=O)N[C@@H](CCCCN)C(N)=O)NC1=O` (H-CQEYPDEIEYICK-NH2; disulfide 1-12) was “Active”.
